In patent publication US20240262844A1, “PYRIDINIUM SALTS AND METHODS OF USE” (UNIVERSITY OF WYOMING, priority 2023, published 2024):
“And” between values parts separate entries of the source, which are not always exact repeats. Equal entries are not always repeated. “Also recorded” adds a separate entry of the source. Structures can show the parent of a compound that is named as a salt.

Legend:
HEK293T lysates = experiment: Chemoproteomic profiling of HEK293T lysates (protein-level enrichment); format: biochemical, Human; settings: for proteome labeling profile, streptavidin-HRP Western blot of elution profiles: 0-100 μM probe, with and without irradiation, before digestion; for number of proteins identified (from ≥2 unique peptides) with ≥2-fold enrichment versus DMSO: about 100 μM probe, 60 min incubation, 20 min irradiation (302 nm 1a, 320 nm 1b, 440 nm 2b)
Procedure: In lysate tryptophan probe treatment for protein-level characterization: HEK293T cell pellets were suspended in native lysis buffer (50 mM HEPES pH 7.5, 150 mM sodium chloride (NaCl), 1.5 mM MgCl2, 1 mM DTT, 0.8% NP-40, 5% glycerol, and 1x protease inhibitors (Thermo)) at 2x the pellet volume. The samples were sonicated on ice for 30 seconds at 20% amplitude with a 2 second pulse ON and 3 second pulse OFF. Cell debris was removed by centrifugation at 20,000×g for 20 minutes at 4° C. Protein concentration was determined by bicinchoninic acid (BCA) (Pierce) and diluted down to 5 mg/mL with ChemProt buffer (50 mM HEPES pH 7.5, 150 mM NaCl, 1.5 mM MgCl2, 1 mM DTT, 0.4% NP-40, and 1x protease inhibitors (Thermo). 5 mg cell lysates were treated with 100x stocks of the tryptophan probes (pyridinium salts 1a, 1b, and 2b) to generate final concentrations (0, 1, 10, and 100 μM) in 1% DMSO. Lysates were incubated for 1 hour at 4° C. followed by photo-activation at respective wavelengths for 20 minutes at 4° C. Excess probe was removed using Sephadex G-25 PD-10 desalting columns (GE Healthcare) pre-equilibrated with 50 mM HEPES pH 7.5, 150 mM NaCl, 1.5 mM MgCl2, and 0.4% NP-40. The samples were then treated with 100 μL Neutravidin resin as a 50% slurry (Peirce). The samples were incubated overnight on a rotating apparatus at R.T. The following day, the beads were transferred to a MobiCol column (Boca Scientific), washed 3× with phosphate buffered saline (PBS) containing 0.2% SDS, washed 3x with PBS, and the enriched proteins were eluted with 2×NuPAGE lithium dodecyl sulfate (LDS) containing 10 mM DTT (Pierce) and heated for 30 minutes at 55° C. The eluent was collected and subsequently treated with 20 mM iodoacetamide (Pierce) for 30 minutes at R.T. protected from light. Samples were passed through detergent removal columns (Pierce) that were pre-equilibrated with 50 mM HEPES pH 8.0. The samples were treated with 2.5 μg Trypsin/LysC (Promega) at 37° C. for 16 hours. The following day, the sample was collected and prepped for isobaric labeling with TMT reagents (Thermo) as specified by the manufacturer.
Quantitative proteomics by two-dimensional nano liquid chromatography-tandem mass spectrometry (nLC-MS/MS): For protein-level characterization, the TMT-labeled sample were reconstituted in 0.1% formic acid (FA)/2% acetonitrile for offline high-pH reversed phase separation (RP10) using a Dionex UltiMate 3000 high-performance liquid chromatography (HPLC) system with fraction collection using Chromeleon v.6.8 (Thermo) software. Separation was achieved on a Waters Xbridge C18 3.5 μm 2.1×150 mm HPLC column (Waters) using a flow rate of 250 μL min-1 and the following ternary gradient and conditions: mobile phase A=water (HPLC grade), mobile phase B=acetonitrile (HPLC grade), and mobile phase C=200 mM ammonium acetate, pH 10. Mobile phase C is held at 10% throughout gradient. Starting conditions are 89% mobile phase A and 1% mobile phase B, ramping mobile phase B to 80% over 65 min. Fractions were collected in 96-well plates at 100 see per well. Fractions were reduced down to 12 fractions, dried, and reconstituted in 0.1% FA/2% acetonitrile for nLC-MS/MS. All data were acquired using a Orbitrap Fusion Lumos coupled to an Easy-nLC 1200 nanoflow liquid chromatograph operating at 300 nL min^−1. Peptides were cleaned up using a 1 cm online custom trap then eluted on a custom 20 cm laser pulled 75 μm column with C18 resin. Peptides were quantified using the synchronous precursor selection (SPS-MS3) or HCD method for TMT quantitation with 120k MS1 resolving power, 50 ms max injection time and 100% AGC. MS2 spectra were selected using the top ten most abundant features with a charge state between 2-6 using CID (collision induced dissociation) in the ion trap. The AGC was set to 100% with an isolation width of 0.7. MS3 was performed on the top 10 most abundant MS2 features between 400-1600 amu with a collision energy of 55%, AGC of 250%, and 50k resolution. […]

lysozyme (14.3 kDa) = biological target: T1, lysozyme (14.3 kDa) (Gallus gallus, UniProt P00698); experiment: Photochemical labeling of lysozyme (LC/MS); format: biochemical, chicken; settings: 500 μM pyridinium salt 2c, 300 μM glutathione
T1 construct: Lysozyme (from chicken egg white, >40,000 units/mg of protein); purchased Sigma Aldrich; host or cells: chicken egg white
Procedure: General Procedure B: Photochemical Irradiation of Peptides and Proteins: To a 2 mL Pyrex LC/MS vial (Thermo model #03-391-39) were sequentially added solutions containing the desired biomolecule, glutathione (GSH), pyridinium salt, and ammonium acetate (NH4OAc). The resulting solution was diluted to a final volume of 500 μL and then sparged using nitrogen for a minimum of 30 minutes prior to irradiation. The actively sparging solution was then placed in an EvoluChem™ PhotoRedOx Box photoreactor that was equipped with a Kessil, PR160 427 nm LED Lamp and was then irradiated (100% lamp intensity) for the designated time at room temperature while maintaining active sparging. The resultant reaction mixture was then analyzed directly by LC/MS. Analysis of labeling outcomes using LC/MS was performed either by extracted ion chromatogram intensities (method A) or by integrating the area under the peaks associated with peptide content (method B). These values were totaled, and estimated percentages were assigned according to relative intensities of peaks or ion counts.
Labeling of Lysozyme with Pyridinium Salt 2a (Lysozyme-2a Conjugate). Labeling of lysozyme (14.3 kDa) with the pyridinium salt 2a was performed by following general procedure B using the following solutions: lysozyme (27 μL, 182 μM, 10 μM final concentration), pyridinium salt 2a (200 μL, 500 μM, 200 μM final concentration), NH4+OAc (100 μL, 100 mM, pH=6.9, 20 mM final concentration), glutathione (15 μL, 10 mM, 300 μM final concentration), and water (158 μL) with a 100% intensity irradiation time of 60 minutes. The reaction mixture was analyzed directly by LC/MS using method A and was estimated to have proceeded in >95% conversion and a 10.9:1 mono:di labeled ratio and 10% glutathionylation of all unlabeled and labeled protein content was observed.
Labeling of Lysozyme with Pyridinium Salt 2b (Lysozyme-2b Conjugate). Labeling of lysozyme (14.3 kDa) with the pyridinium salt 2b was performed by following general procedure B using the following solutions: lysozyme (19 μL, 262 μM, 10 μM final concentration), 2b (181 μL, 554 μM, 200 μM final concentration), NH4OAc (50 μL, 200 mM, pH=6.9, 20 mM final concentration), glutathione (50 μL, 3 mM, 300 μM final concentration), and water (200 μL) with a 100% intensity irradiation time of 10 minutes. The reaction mixture was analyzed directly by LC/MS using method A and was estimated to have proceeded with 83% conversion. Partial oxidation at biotin obfuscated estimation of both oxidation and glutathionylation. Lysozyme-2b conjugate (retention time (Tr)=2.80-5.17 min).
Labeling of Lysozyme with Pyridinium Salt 2c (Lysozyme-2c Conjugate). Labeling of lysozyme (14.3 kDa) with the pyridinium salt 2c was performed by following general procedure B using the following solutions: lysozyme (19 μL, 262 μM, 10 μM final concentration), pyridinium salt 2c(367 μL, 680 μM, 500 μM final concentration), NH4OAc (50 μL, 200 mM, pH=6.9, 20 mM final concentration), glutathione (50 μL, 3 mM, 300 μM final concentration), and water (14 μL) with a 100% intensity irradiation time of 10 minutes. The reaction mixture was analyzed directly by LC/MS using method A and was estimated to have proceeded with 85% conversion and a 3.7:1 mono:di labeled ratio and 10% glutathionylation of all protein content was observed. Lysozyme-2c conjugate (retention time (Tr)=3.11-5.07 min).
Labeling of Lysozyme with Pyridinium Salt 2d (Lysozyme-2d Conjugate). Labeling of lysozyme (14.3 kDa) with the pyridinium salt 2d was performed by following general procedure B using the following solutions: Lysozyme (16.8 μL, 0.297 mM solution in H2O, final concentration […]), pyridinium salt 2d (91.8 μL, 1.09 mM solution in CH3CN/H2O (2:3), final concentration 200 μM), NH4OAc (50 μL, 200 mM in H2O, final concentration 20 mM, pH 6.9), glutathione (15 μL, 10 mMsolution in H2O, final concentration 300 μM), and water (326.4 μL) with a 100% intensity irradiation time of 20 minutes. […]

[1] = Water solubility of salt forms; format: physicochemical; settings: trifluoroacetate salt compared to the tetrafluoroborate salt
Procedure: Pyridinium salt 2c was synthesized by adapting general procedure A as follows: To a flame dried round-bottom flask equipped with a stir bar was added 4-(6-methoxynaphthalen-2-yl)-2,6-dimethylpyrylium tetrafluoroborate (S2) (80 mg, 0.23 mmol), 6-((4R,5S)-5-methyl-2-oxoimidazolidin-4-yl)hexyl 1-methylhydrazine-1-carboxylate S6 (110 mg, 0.404 mmol), and ethanol (1.2 mL) and stirred for 24 hours at 60° C. The reaction mixture was then concentrated using a rotary evaporator. The resulting residue was dissolved in dichloromethane and washed with 10% fluoroboric acid (HBF4, aqueous) (2×10 mL), saturated NaBF4 (aqueous) (2×10 mL), dried over […], filtered, and concentrated using a rotary evaporator. The resulting green solid was then sonicated in hexanes followed by decanting of the supernatant. This procedure was repeated 5 times and the resulting solid was dried under vacuum to obtain the tetrafluoroborate salt of 2c as a green solid (119 mg, 76%). The tetrafluoroborate salt of 2c was further purified by HPLC using general method B to yield the trifluoroacetate (X=TFA, CF3CO2^−) salt of 2c.

T1 sequence (P00698 19-147): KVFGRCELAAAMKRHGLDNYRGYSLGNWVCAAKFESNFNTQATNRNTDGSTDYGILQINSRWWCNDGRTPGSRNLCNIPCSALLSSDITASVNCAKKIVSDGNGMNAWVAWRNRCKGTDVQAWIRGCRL

| conversion (lysozyme (14.3 kDa); 10 μM lysozyme, 20 mM NH4OAc pH 6.9, 427 nm, 10 minutes, trifluoroacetate) | glutathionylation of all protein content (lysozyme (14.3 kDa); 10 minutes irradiation) [%] | water solubility [1] | SMILES | proteome labeling profile, streptavidin-HRP Western blot of elution profiles (HEK293T lysates) | number of proteins identified (from ≥2 unique peptides) with ≥2-fold enrichment versus DMSO (HEK293T lysates) [proteins] |
| --- | --- | --- | --- | --- | --- |
|  |  |  | Cc1cc(C)[n+](N(C)C(=O)OCCCCC[C@@H]2SC[C@@H]3NC(=O)N[C@@H]32)c(C)c1 [Pyridinium salt 1a, 2,4,6-trimethyl-1-(methyl(((5-((3aS,4S,6aR)-2-oxohexahydro-1H-thieno[3,4-d]imidazol-4-yl)pentyl)oxy)carbonyl)amino)pyridin-1-ium tetrafluoroborate] | concentration and optically dependent proteome labeling profiles; also recorded: loss of signal | 185 |
|  |  |  | Cc1cc(-c2ccccc2)cc(C)[n+]1N(C)C(=O)OCCCCC[C@@H]1SC[C@@H]2NC(=O)N[C@@H]21 [Pyridinium salt 1b, 2,6-dimethyl-1-(methyl(((5-((3aS,4S,6aR)-2-oxohexahydro-1H-thieno[3,4-d]imidazole-4-yl)pentyl)oxy)carbonyl)amino)-4-phenylpyridin-1-ium tetrafluoroborate] | concentration and optically dependent proteome labeling profiles; also recorded: dose-response profiles | 365 |
| 85% and 86% | 10 | superior water solubility | COc1ccc2cc(-c3cc(C)[n+](N(C)C(=O)OCCCCCC[C@H]4NC(=O)N[C@H]4C)c(C)c3)ccc2c1 [Pyridinium salt 2c, 4-(6-methoxynaphthalen-2-yl)-2,6-dimethyl-1-(methyl(((6-((4R,5S)-5-methyl-2-oxoimidazolidin-4-yl)hexyl)oxy)carbonyl)amino)pyridin-1-ium trifluoroacetate] |  |  |
